From publication PMC6264673, “Synthesis and SAR Study of Novel Peptide Aldehydes as Inhibitors of 20S Proteasome” (Molecules, 2011)
Non-standard residues stand in square brackets, D forms with d. Residues, ends and D or L forms follow the SMILES beside them. *: point of attachment. Arg(NO2) = N=C(NCCC[C@H](N)C(=O)O)N[N+](=O)[O-]; 2Nal = N[C@@H](Cc1ccc2ccccc2c1)C(=O)O; Tos = Cc1ccc(S(=O)(=O)*)cc1; Cbz = O=C(OCc1ccccc1)*; Boc = CC(C)(C)OC(=O)*; OBn = c1ccc(CO*)cc1; Bn = c1ccc(C*)cc1; OtBu = CC(C)(C)O*

Target: T1, ChT-L activity of 20S proteasome (Mus musculus, UniProt O09061+O55234)
T1 construct: 20S proteasome purified from mouse liver; from tissue; host or cells: mouse liver
Experiment: Assay for ChT-L activity of 20S proteasome with fluorogenic peptide Suc-Leu-Leu-Val-Tyr-AMC
Assay type: biochemical
Conditions: for IC50: 20S proteasome purified from mouse liver (1 μg), 50 μM Suc-Leu-Leu-Val-Tyr-AMC, 20 mM Tris-HCl pH 7.8, 37 °C, 1 h; for fold higher ChT-L inhibitory activity than the other Cbz series compounds: comparison within the Cbz series; for ChT-L inhibitory activity compared with the control MG132: result in words, versus positive control MG132
Description: Inhibitory activities of peptide aldehydes on the 20S proteasome are assayed in vitro [41]. MG132 was used as the positive control (Table 1).
Assays for proteasome activities. The enzymatic activities of the proteasome were assayed using fluorogenic peptides: Suc-Leu-Leu-Val-Tyr-AMC (Suc represents succinyl and AMC represents […], obtained from Sigma) for ChT-L activity. 20S proteasome purified from mouse liver (1 μg) was incubated with various concentrations of compounds and 50 μM fluorogenic peptides in 20 mM Tris-HCl pH 7.8 (100 μL) at 37 °C for 1 h, respectively. The fluorescence of released AMC was measured by a spectrofluorimeter (Fluostar OPTIMA, BMG Germany) at excitation/emission wavelengths of 380/440 nm and 335/410 nm, respectively. 0.1% DMSO was used as solvent control. Compared with the fluorescence of solvent control, an inhibition rate was calculated and thereafter the IC50 value was deduced.

Row | IC50 [nM] | fold higher ChT-L inhibitory activity than the other Cbz series compounds | Compound | ChT-L inhibitory activity compared with the control MG132
1 | > 50000 |  | CC(C)C[C@@H](C=O)NC(=O)[C@H](CC(C)C)NC(=O)[C@H](CCC(=O)OCc1ccccc1)NC(=O)OC(C)(C)C [Compound 3l, Boc-L-Glu(OBzl)-L-Leu-L-Leucinal] (Boc-Glu(OBn)-Leu-Leu-aldehyde) | 
2 | > 50000 |  | CC(C)CC(C=O)NC(=O)C(Cc1ccccc1)NC(=O)C1CCCN1C(=O)OC(C)(C)C [Compound 3m, Boc-L-Pro-L-Phe-L-Leucinal] (Boc-Pro-Phe-Leu-aldehyde; configuration not given here) | 
3 | 280 ± 60 |  | CC(C)C[C@@H](C=O)NC(=O)[C@H](CC(C)C)NC(=O)[C@H](CC(C)C)NC(=O)OCc1ccccc1 [MG132, Cbz-L-Leu-L-Leu-L-Leucinal, reference compound] (Cbz-Leu-Leu-Leu-aldehyde) | 
4 | > 50000 |  | CC(C)CC(C=O)NC(=O)C(CC(C)C)NC(=O)C1CCCN1C(=O)OC(C)(C)C [Compound 3n, Boc-L-Pro-L-Leu-L-Leucinal] (Boc-Pro-Leu-Leu-aldehyde; configuration not given here) | 
5 | > 50000 |  | CC(C)CC(C=O)NC(=O)C(CC(C)C)NC(=O)C(Cc1ccc(OCc2ccccc2)cc1)NC(=O)OC(C)(C)C [Compound 3q, Boc-L-Tyr(OBn)-L-Leu-L-Leucinal] (Boc-Tyr(Bn)-Leu-Leu-aldehyde; configuration not given here) | 
6 | 50 ± 2 |  | CC(C)CC(C=O)NC(=O)C(CC(C)C)NC(=O)C(COCc1ccccc1)NC(=O)OC(C)(C)C [Compound 3o, Boc-L-Ser(OBn)-L-Leu-L-Leucinal] (Boc-Ser(Bn)-Leu-Leu-aldehyde; configuration not given here) | much higher activities than the control MG132
7 | 290 ± 21 |  | CC(C)CC(C=O)NC(=O)C(CC(C)C)NC(=O)C(NC(=O)OC(C)(C)C)C(C)OCc1ccccc1 [Compound 3p, Boc-L-Thr(OBn)-L-Leu-L-Leucinal] (Boc-Thr(Bn)-Leu-Leu-aldehyde; configuration not given here) | 

Second part, the compound before the results:

Row | Compound | IC50 [nM] | fold higher ChT-L inhibitory activity than the other Cbz series compounds | ChT-L inhibitory activity compared with the control MG132
8 | CC(C)C[C@@H](C=O)NC(=O)[C@H](Cc1ccccc1)NC(=O)[C@H](CCC(=O)OC(C)(C)C)NC(=O)OCc1ccccc1 [Compound 3c, Cbz-L-Glu(OtBu)-L-Phe-L-Leucinal] (Cbz-Glu(OtBu)-Phe-Leu-aldehyde) | 28 ± 6 | about 10 fold | much higher activities than the control MG132
9 | CC(C)CC(C=O)NC(=O)C(CC(C)C)NC(=O)C(CC(=O)OCc1ccccc1)NC(=O)OC(C)(C)C [Compound 3j, Boc-L-Asp(OBzl)-L-Leu-L-Leucinal] (Boc-Asp(OBn)-Leu-Leu-aldehyde; configuration not given here) | 20300 ± 2050 |  | 
10 | CC(C)CC(C=O)NC(=O)C(Cc1ccccc1)NC(=O)C(CC(=O)OC(C)(C)C)NC(=O)OCc1ccccc1 [Compound 3a, Cbz-L-Asp(OtBu)-L-Phe-L-Leucinal] (Cbz-Asp(OtBu)-Phe-Leu-aldehyde; configuration not given here) | 210 ± 14 |  | 
11 | CC(C)CC(C=O)NC(=O)C(CC(C)C)NC(=O)C(CC(=O)OC(C)(C)C)NC(=O)OCc1ccccc1 [Compound 3b, Cbz-L-Asp(OtBu)-L-Leu-L-Leucinal] (Cbz-Asp(OtBu)-Leu-Leu-aldehyde; configuration not given here) | 200 ± 35 |  | 
12 | CC(C)C[C@@H](C=O)NC(=O)[C@H](CC(C)C)NC(=O)[C@H](Cc1ccc2ccccc2c1)NC(=O)OCc1ccccc1 [Compound 3h, Cbz-L-(2-Naphthyl)alanine-L-Leu-L-Leucinal] (Cbz-[2Nal]-Leu-Leu-aldehyde) | 410 ± 82 |  | 
13 | Cbz-L-Phe-L-leu-L-Leucinal [Compound 3e] | 850 ± 47 |  | 
14 | CC(C)C[C@@H](C=O)NC(=O)[C@H](CC(C)C)NC(=O)[C@H](CCC(=O)OC(C)(C)C)NC(=O)OCc1ccccc1 [Compound 3d, Cbz-L-Glu(OtBu)-L-leu-L-Leucinal] (Cbz-Glu(OtBu)-Leu-Leu-aldehyde) | 89 ± 20 | about 10 fold | much higher activities than the control MG132
15 | CC(C)C[C@@H](C=O)NC(=O)[C@H](Cc1ccccc1)NC(=O)[C@H](CC(=O)OCc1ccccc1)NC(=O)OC(C)(C)C [Compound 3i, Boc-L-Asp(OBzl)-L-Phe-L-Leucinal] (Boc-Asp(OBn)-Phe-Leu-aldehyde) | 4830 ± 2300 |  | 
16 | CC(C)C[C@@H](C=O)NC(=O)[C@H](CC(C)C)NC(=O)[C@H](CCCNC(N)=N[N+](=O)[O-])NC(=O)OCc1ccccc1 [Compound 3f, Cbz-L-Arg(NO2)-L-leu-L-Leucinal] (Cbz-[Arg(NO2)]-Leu-Leu-aldehyde) | > 50000 |  | 
17 | Cc1ccc(S(=O)(=O)NC(=N)NCCCC(NC(=O)OCc2ccccc2)C(=O)NC(CC(C)C)C(=O)NC(C=O)CC(C)C)cc1 [Compound 3g, Cbz-L-Arg(Tos)-L-leu-L-Leucinal] (Cbz-Arg(Tos)-Leu-Leu-aldehyde; configuration not given here) | > 50000 |  | 
18 | CC(C)C[C@@H](C=O)NC(=O)[C@H](Cc1ccccc1)NC(=O)[C@H](CCC(=O)OCc1ccccc1)NC(=O)OC(C)(C)C [Compound 3k, Boc-L-Glu(OBzl)-L-Phe-L-Leucinal] (Boc-Glu(OBn)-Phe-Leu-aldehyde) | 7140 ± 1930 |  | 
